{"source": "paper PMC6332200", "about": "“Isolation and Identification of Cytotoxic Compounds from Aeschynomene fascicularis, a Mayan Medicinal Plant” (Molecules, 2015)", "key": {"[1]": {"tested_on": "KB", "experiment": "Antiproliferative sulforhodamine B assay, KB", "format": "cell-based, human", "conditions": "Homo sapiens; KB, SRB, 48 h", "procedure": "(§1) Three types of cancer cell lines obtained from the American Type Culture Collection (ATCC) were cultured: two oral-laryngeal cancer cell lines, nasopharynx carcinoma (KB, ATCC-CCL-17) and laryngeal carcinoma (Hep-2, ATCC-CCL-23); two cervix-uterine cancer cell lines, cervix adenocarcinoma (HeLa, ATCC-CCL-2) and cervix squamous carcinoma (SiHa, ATCC-HTB-35); and two prostate cancer cell lines, prostate carcinoma (DU-145, ATCC-HTB-81) and prostate adenocarcinoma (PC-3, ATCC-CRL-1435); along with one normal cell line (MDCK, ATCC-CCL-34). The cells were cultured in sterile Costar T75 flasks containing DMEM (Gibco, Hong Kong, China), supplemented with fetal bovine serum (10%, v/v), 100 U/mL penicillin G, and […] streptomycin at 37 °C in an atmosphere of 5% CO2 (95% humidity). At 70%–80% confluence, cells were detached from the cultured flask by treatment with 0.05% trypsin-EDTA (Gibco), and a suspension of 5 × 10^4 cells/mL of viable cells was seeded in a 96-well microtiter plate (Costar, Washington, DC, USA) and incubated.\n(§2) The growth inhibition of cancer cells was evaluated by the sulforhodamine B method. When cells reached 70% confluence in a microtiter plate, the medium was replaced with DMEM 5% FBS and samples at various concentrations. After 48 h, the medium was discarded, and cells were fixed by adding 50 μL of 10% trichloroacetic acid (TCA, Sigma-Aldrich Chemical, St. Louis, MO, USA). The cells were then incubated at 4 °C for 30 min; TCA was drained off, and the plates were left to dry. Then, 50 μL of SRB stain (10 mg of 1% acetic acid, Sigma) were added to each well for 30 min. Finally, the plates were washed four times with 1% acetic acid (100 μL). The OD was measured at 540 nm using an ELISA reader (Bio-Rad). Docetaxel was used as a positive control, whereas cells incubated only with 0.05% of DMSO were used as a negative control. All determinations were performed in triplicate.\n(§3) The cytotoxic and antiproliferative activities of tested compounds were calculated as the percentage of cells killed or the percentage of inhibition of cell proliferation, respectively, using the equation: growth inhibition (%) = (ODcontrol − ODsample/ODcontrol) × 100. […] In addition, the level of cytotoxicity on normal cells was evaluated by determining the selectivity index (SI) of each compound, which is calculated as the ratio of cytotoxicity or reduced cell growth on normal cells to cancer cells (SI = normal cells/cancer cells). It is generally considered that biological efficacy is not due to general toxicity when SI ≥ 10 [17]."}, "[2]": {"experiment": "Cytotoxicity MTT assay, MDCK normal cell line", "format": "cell-based", "conditions": "dog, MDCK cells (normal cell line), read-out: Cytotoxic activity CC50", "procedure": "(§4) Three types of cancer cell lines obtained from the American Type Culture Collection (ATCC) were cultured: two oral-laryngeal cancer cell lines, nasopharynx carcinoma (KB, ATCC-CCL-17) and laryngeal carcinoma (Hep-2, ATCC-CCL-23); two cervix-uterine cancer cell lines, cervix adenocarcinoma (HeLa, ATCC-CCL-2) and cervix squamous carcinoma (SiHa, ATCC-HTB-35); and two prostate cancer cell lines, prostate carcinoma (DU-145, ATCC-HTB-81) and prostate adenocarcinoma (PC-3, ATCC-CRL-1435); along with one normal cell line (MDCK, ATCC-CCL-34). The cells were cultured in sterile Costar T75 flasks containing DMEM (Gibco, Hong Kong, China), supplemented with fetal bovine serum (10%, v/v), 100 U/mL penicillin G, and […] streptomycin at 37 °C in an atmosphere of 5% CO2 (95% humidity). At 70%–80% confluence, cells were detached from the cultured flask by treatment with 0.05% trypsin-EDTA (Gibco), and a suspension of 5 × 10^4 cells/mL of viable cells was seeded in a 96-well microtiter plate (Costar, Washington, DC, USA) and incubated. Cytotoxicity was assessed by the MTT assay as previously described by Rahman. When cells reached 90% confluence in a microtiter plate, the DMEM was replaced with fresh medium and cells were incubated with compounds at various concentrations. […] The medium was aspirated, and the formazan product was solubilized with acidified isopropanol (0.4 N HCl). The amount of MTT-formazan is directly proportional to the number of living cells and was determined by measuring the optical density (OD) at 590 nm using a bioassay reader (Bio-Rad). All determinations were performed in triplicate. The cytotoxic and antiproliferative activities of tested compounds were calculated as the percentage of cells killed or the percentage of inhibition of cell proliferation, respectively, using the equation: growth inhibition (%) = (ODcontrol − ODsample/ODcontrol) × 100. […] In addition, the level of cytotoxicity on normal cells was evaluated by determining the selectivity index (SI) of each compound, which is calculated as the ratio of cytotoxicity or reduced cell growth on normal cells to cancer cells (SI = normal cells/cancer cells)."}, "[3]": {"experiment": "Cytotoxicity MTT assay, PC-3 prostate adenocarcinoma", "format": "cell-based, human", "conditions": "human, MDCK normal cells versus PC-3 prostate adenocarcinoma cells; CC50 MDCK normal cells / PC-3; read-out: Selectivity index (SI) of cytotoxic activity", "procedure": "as §4"}, "[4]": {"tested_on": "PC-3", "experiment": "Cytotoxicity MTT assay, PC-3 prostate adenocarcinoma", "format": "cell-based, human", "conditions": "Homo sapiens; PC-3, MTT, 72 h; read-out: Cytotoxic activity CC50", "procedure": "as §4"}, "[5]": {"tested_on": "HeLa", "experiment": "Antiproliferative sulforhodamine B assay, HeLa", "format": "cell-based, human", "conditions": "Homo sapiens; HeLa, SRB, 48 h", "procedure": "as §1, §2, §3"}, "[6]": {"tested_on": "SiHa", "experiment": "Antiproliferative sulforhodamine B assay, SiHa", "format": "cell-based, human", "conditions": "Homo sapiens; SiHa, SRB, 48 h", "procedure": "as §1, §2, §3"}, "[7]": {"experiment": "Cytotoxicity MTT assay, DU-145 prostate carcinoma", "format": "cell-based, human", "conditions": "human, MDCK normal cells versus DU-145 prostate carcinoma cells; CC50 MDCK normal cells / DU-145; read-out: Selectivity index (SI) of cytotoxic activity", "procedure": "as §4"}, "[8]": {"tested_on": "DU-145", "experiment": "Cytotoxicity MTT assay, DU-145 prostate carcinoma", "format": "cell-based, human", "conditions": "Homo sapiens; DU-145, MTT, 72 h; read-out: Cytotoxic activity CC50", "procedure": "as §4"}, "[9]": {"tested_on": "MDCK", "experiment": "Antiproliferative sulforhodamine B assay, MDCK normal cell line", "format": "cell-based", "conditions": "Canis lupus familiaris, SRB, 48 h", "procedure": "as §1, §2, §3"}, "[10]": {"experiment": "Cytotoxicity MTT assay, KB nasopharynx carcinoma", "format": "cell-based, human", "conditions": "human, MDCK normal cells versus KB nasopharynx carcinoma cells; CC50 MDCK normal cells / KB; read-out: Selectivity index (SI) of cytotoxic activity", "procedure": "as §4"}, "[11]": {"tested_on": "KB", "experiment": "Cytotoxicity MTT assay, KB nasopharynx carcinoma", "format": "cell-based, human", "conditions": "Homo sapiens; KB, MTT, 72 h; read-out: Cytotoxic activity CC50", "procedure": "as §4"}, "[12]": {"tested_on": "Hep-2", "experiment": "Antiproliferative sulforhodamine B assay, Hep-2", "format": "cell-based, human", "conditions": "Homo sapiens; Hep-2, SRB, 48 h", "procedure": "as §1, §2, §3"}, "[13]": {"tested_on": "Trypanosoma cruzi", "parameters": "method as in PMID 17291734", "conditions": "cited from earlier work"}, "[14]": {"tested_on": "PC-3", "experiment": "Antiproliferative sulforhodamine B assay, PC-3", "format": "cell-based", "conditions": "Homo sapiens; PC-3, SRB, 48 h", "procedure": "as §1, §2, §3"}, "[15]": {"tested_on": "DU-145", "experiment": "Antiproliferative sulforhodamine B assay, DU-145", "format": "cell-based, human", "procedure": "as §1, §2, §3"}, "[16]": {"tested_on": "Leishmania mexicana", "parameters": "method as in PMID 17291734", "conditions": "cited from earlier work"}, "[17]": {"tested_on": "HeLa", "experiment": "Cytotoxicity MTT assay, HeLa cervix adenocarcinoma", "format": "cell-based, human", "conditions": "Homo sapiens; HeLa, MTT, 72 h; read-out: Cytotoxic activity CC50", "procedure": "as §4"}, "[18]": {"tested_on": "SiHa", "experiment": "Cytotoxicity MTT assay, SiHa cervix squamous carcinoma", "format": "cell-based, human", "conditions": "Homo sapiens; SiHa, MTT, 72 h; read-out: Cytotoxic activity CC50", "procedure": "as §4"}, "[19]": {"experiment": "Cytotoxicity MTT assay, Hep-2 laryngeal carcinoma", "format": "cell-based, human", "conditions": "dog MDCK normal cells versus Hep-2 laryngeal carcinoma cells; CC50 MDCK normal cells / Hep-2; read-out: Selectivity index (SI) of cytotoxic activity", "procedure": "as §4"}, "[20]": {"tested_on": "Hep-2", "experiment": "Cytotoxicity MTT assay, Hep-2 laryngeal carcinoma", "format": "cell-based, human", "conditions": "Homo sapiens; Hep-2, MTT, 72 h; read-out: Cytotoxic activity CC50", "procedure": "as §4"}}, "note": "Values joined by “and” are separate entries in the source; they are usually repeats but may differ in a detail not shown here. Identical values can stand only once."}
{"smiles": "CC(C)=CCc1c(O)ccc(C(=O)/C=C/c2ccccc2)c1O", "note": "[Compound 3, isocordoin]", "values": [{"measurement": "IC50", "setting": "[1]", "result": "> 100", "unit": "µM"}, {"measurement": "CC50 at 72 h", "setting": "[2]", "result": "4.2 µg/mL and 14 µM"}, {"measurement": "selectivity ratio at 72 h", "setting": "[3]", "result": 0.23}, {"measurement": "CC50", "setting": "[4]", "result": "18.4 µg/mL and 60.3 µM"}, {"measurement": "IC50", "setting": "[5]", "result": "> 100", "unit": "µM"}, {"measurement": "IC50", "setting": "[6]", "result": "> 100", "unit": "µM"}, {"measurement": "selectivity ratio at 72 h", "setting": "[7]", "result": 0.6}, {"measurement": "CC50", "setting": "[8]", "result": "7 µg/mL and 23.1 µM"}, {"measurement": "IC50", "setting": "[9]", "result": "18.4 µg/mL and 60.8 µM"}, {"measurement": "selectivity ratio at 72 h", "setting": "[10]", "result": 0.5}, {"measurement": "CC50", "setting": "[11]", "result": "11 µg/mL and 27 µM"}, {"measurement": "IC50", "setting": "[12]", "result": "> 100", "unit": "µM"}, {"measurement": "Activity against the parasite Trypanosoma cruzi", "setting": "[13]", "result": "active"}, {"measurement": "IC50", "setting": "[14]", "result": "> 100", "unit": "µM"}, {"measurement": "IC50", "setting": "[15]; Homo sapiens, DU-145, SRB, 48 h", "result": "13.3 µg/mL and 43.8 µM"}, {"measurement": "Selectivity index (SI) of antiproliferative activity", "setting": "[15]; IC50 MDCK normal cells / DU-145", "result": 1.4}, {"measurement": "Activity against the parasite Leishmania mexicana", "setting": "[16]", "result": "active"}, {"measurement": "CC50", "setting": "[17]", "result": "> 100", "unit": "µg/mL"}, {"measurement": "CC50", "setting": "[18]", "result": "> 100", "unit": "µg/mL"}, {"measurement": "selectivity ratio at 72 h", "setting": "[19]", "result": 0.7}, {"measurement": "CC50", "setting": "[20]", "result": "6.1 µg/mL and 20 µM"}]}
